Read-outs that look alike come from different tables or passages of the source.
Assays:
CYP2D6 = CYP2D6 (Homo sapiens, UniProt P10635); assay: CYP2D6 inhibition assay (bufuralol, pooled human liver microsomes)
[1] = Microsomal stability assay, rat liver microsomes; details: rat liver microsomal data;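 further: rat liver microsomes (0.25 mg/mL) with about 1 µM compound plus 1 mM NADPH, pH 7.4, 37 °C for 30 min, parent left measured by LC-MS/MS against 0 min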
[2] = molecular target: Beta Secretase enzyme (BACE) (Homo sapiens, UniProt P56817); assay: In vitro enzymatic BACE FRET (fluorescence resonance energy transfer) assay; type: biochemical; details: read-out: BACE1 FRET assay;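 further: fluorescence read after 1 h with 50 nM quenched peptide substrate spanning the BACE cleavage site, in pH 4.2 acetate buffer containing 10% DMSO and nonionic detergent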
Beta Secretase enzyme (BACE), sequence (P56817 46-501): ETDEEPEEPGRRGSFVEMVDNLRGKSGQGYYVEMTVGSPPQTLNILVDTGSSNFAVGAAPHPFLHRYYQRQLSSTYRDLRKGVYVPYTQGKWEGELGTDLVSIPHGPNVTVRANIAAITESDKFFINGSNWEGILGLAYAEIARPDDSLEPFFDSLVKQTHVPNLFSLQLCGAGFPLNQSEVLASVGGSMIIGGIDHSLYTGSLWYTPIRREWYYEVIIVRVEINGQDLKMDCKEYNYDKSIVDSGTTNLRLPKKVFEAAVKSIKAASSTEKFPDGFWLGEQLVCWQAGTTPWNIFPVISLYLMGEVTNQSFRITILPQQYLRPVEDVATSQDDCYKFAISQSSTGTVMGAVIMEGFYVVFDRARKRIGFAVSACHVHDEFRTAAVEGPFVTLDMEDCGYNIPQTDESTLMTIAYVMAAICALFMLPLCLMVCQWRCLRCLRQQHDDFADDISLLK

CYP3A4 (CYP3A) = CYP3A4 (CYP3A) (Homo sapiens, UniProt P08684); assay: in vitro; details: microsomes, pH 7.4;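 further: inhibition of CYP3A-mediated 1-hydroxymidazolam formation after 10 min incubation with NADPH, quantified by HPLC MS relative to metabolite produced without test compound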
CYP3A4 (CYP3A), sequence (P08684 2-503): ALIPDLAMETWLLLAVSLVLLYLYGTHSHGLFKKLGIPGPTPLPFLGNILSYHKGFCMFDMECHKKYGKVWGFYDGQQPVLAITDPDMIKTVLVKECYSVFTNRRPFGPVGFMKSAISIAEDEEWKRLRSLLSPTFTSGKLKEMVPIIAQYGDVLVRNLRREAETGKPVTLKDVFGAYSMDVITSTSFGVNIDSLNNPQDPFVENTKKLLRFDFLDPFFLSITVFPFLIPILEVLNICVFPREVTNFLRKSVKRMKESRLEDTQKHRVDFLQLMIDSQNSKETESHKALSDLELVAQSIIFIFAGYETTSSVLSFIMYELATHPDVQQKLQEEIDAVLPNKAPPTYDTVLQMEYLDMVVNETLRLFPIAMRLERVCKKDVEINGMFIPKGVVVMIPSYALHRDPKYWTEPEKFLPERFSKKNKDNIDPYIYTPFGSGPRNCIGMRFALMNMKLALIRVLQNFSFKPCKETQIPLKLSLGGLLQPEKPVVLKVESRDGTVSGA

[3] = Microsomal stability assay, human liver microsomes; details: human liver microsomal data;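 further: pooled human liver microsomes at 0.25 mg/mL with 1 µM compound and NADPH at 37 °C, pH 7.4, for 30 min, unchanged parent quantified by LC-MS/MS against the 0 min sample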
[4] = tested on: Aβ40 in conditioned medium of cells stably expressing Amyloid Precursor Protein (APP); assay: In vitro BACE cell-based assay (Aβ40 in conditioned medium, sandwich ELISA); details: Homo sapiens, read-out: HEK cell assay;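 further: compounds added as a dilution series, secreted peptide quantified by europium time-resolved fluorescence readout, potency fitted from percent of control versus compound concentration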
[5] = 2D6 IC50, CYP enzyme inhibition

CYP2D6, sequence (P10635 whole entry): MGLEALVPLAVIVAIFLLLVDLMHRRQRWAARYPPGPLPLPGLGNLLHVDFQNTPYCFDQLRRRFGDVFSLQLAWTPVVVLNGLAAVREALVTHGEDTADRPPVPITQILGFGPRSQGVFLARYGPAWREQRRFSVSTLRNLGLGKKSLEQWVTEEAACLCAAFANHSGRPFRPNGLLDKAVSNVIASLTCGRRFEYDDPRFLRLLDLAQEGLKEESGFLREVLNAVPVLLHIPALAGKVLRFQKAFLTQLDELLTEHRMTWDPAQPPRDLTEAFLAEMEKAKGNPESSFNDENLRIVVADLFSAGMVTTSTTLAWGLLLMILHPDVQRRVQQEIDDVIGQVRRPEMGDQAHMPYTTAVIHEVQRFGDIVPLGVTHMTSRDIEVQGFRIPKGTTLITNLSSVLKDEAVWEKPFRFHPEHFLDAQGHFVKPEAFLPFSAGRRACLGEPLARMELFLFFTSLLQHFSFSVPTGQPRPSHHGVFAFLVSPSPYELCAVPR

With `CC(C)(C)Cc1cnc2c(c1)[C@@H](NC[C@@H](O)[C@H](Cc1cccc(C#N)c1)NC(=O)[C@H]1CCCO1)CC1(CC(F)(F)C1)O2` [compound 472] the IC50 (CYP2D6; [5]) was 7.1 µM, the RLM [1] was 775 µL/min/mg and the IC50 ([2]; Table 2) was 5 nM. It also gave an IC50 (CYP3A4 (CYP3A)) of 800 nM, an HLM [3] of 736 µL/min/mg and an IC50 ([4]; HEK293, Table 2, HEK cells) of 15 nM.
For `COCC(=O)N[C@@H](Cc1ccnc(OC)c1)[C@H](O)CN[C@H]1CC2(CCC2)Oc2ncc(CC(C)(C)C)cc21` [compound 474], the IC50 (CYP2D6; [5]) was 6.5 µM, the RLM [1] was 174 µL/min/mg and the IC50 ([2]; Table 2) was 13 nM. The IC50 (CYP3A4 (CYP3A)) was 2000 nM, the HLM [3] was 172 µL/min/mg and the IC50 ([4]; HEK293, Table 2, HEK cells) was 22 nM.
`COCC(=O)N[C@@H](Cc1cc(F)cc(F)c1)[C@H](O)CN[C@H]1CC2(CCC2)Oc2c1cc(CC(C)(C)C)cc2-n1ccnc1` [compound 475] gave an IC50 (CYP2D6; [5]) of 1.75 µM, an RLM [1] of 128.5 µL/min/mg and an IC50 ([2]; Table 2) of 18 nM. For the same molecule, the IC50 (CYP3A4 (CYP3A)) was 50 nM, the HLM [3] was 26 µL/min/mg and the IC50 ([4]; HEK293, Table 2, HEK cells) was 8 nM.
Molecule `CO[C@H](C)C(=O)N[C@@H](Cc1cc(F)cc(F)c1)[C@H](O)CN[C@H]1CC2(CCC2)Oc2c(-c3cnc[nH]3)cc(CC(C)C)cc21` [compound 476] has an IC50 (CYP2D6; [5]) of 12.3 µM, an RLM [1] of 408 µL/min/mg and an IC50 ([2]; Table 2) of 28 nM. It also gave an IC50 (CYP3A4 (CYP3A)) of 600 nM, an HLM [3] of 329 µL/min/mg and an IC50 ([4]; HEK293, Table 2, HEK cells) of 5 nM.
Molecule `CC(C)(C)Cc1cnc2c(c1)[C@@H](NC[C@@H](O)[C@H](Cc1ccc(F)cc1)NC(=O)C(C)(F)F)CC1(CCC1)O2` [compound 477] has an IC50 (CYP2D6; [5]) of 3.2 µM, an RLM [1] of 337 µL/min/mg and an IC50 ([2]; Table 2) of 12 nM. It also gave an IC50 (CYP3A4 (CYP3A)) of 300 nM, an HLM [3] of 118 µL/min/mg and an IC50 ([4]; HEK293, Table 2, HEK cells) of 104 nM.
Molecule `CNc1cc(CC(C)(C)C)cc2c1OC1(CCC1)C[C@@H]2NC[C@@H](O)[C@H](Cc1cc(F)cc(F)c1)NC(=O)COC` [compound 479] has an IC50 (CYP2D6; [5]) of 6.4 µM, an RLM [1] of 329 µL/min/mg and an IC50 ([2]; Table 2) of 11 nM. It also gave an IC50 (CYP3A4 (CYP3A)) of 1800 nM, an HLM [3] of 167 µL/min/mg and an IC50 ([4]; HEK293, Table 2, HEK cells) of 17 nM.
Work on `COCC(=O)N[C@@H](Cc1cc(F)cc(F)c1)[C@H](O)CN[C@H]1CC2(CCC2)Oc2c(-c3cnc[nH]3)cc(CC(C)C)cc21` [compound 480] yielded an IC50 (CYP2D6; [5]) of 10.1 µM, an RLM [1] of 405 µL/min/mg and an IC50 ([2]; Table 2) of 23 nM. For the same molecule, the IC50 (CYP3A4 (CYP3A)) was 500 nM, the HLM [3] was 272 µL/min/mg and the IC50 ([4]; HEK293, Table 2, HEK cells) was 6 nM.
In the case of `CC(=O)N[C@@H](Cc1cc(F)cc(F)c1)[C@H](O)CN[C@H]1CC2(CCC2)Oc2c1cc(CC(C)(C)C)nc2-c1cncs1` [compound 481], the IC50 (CYP2D6; [5]) is reported as 7.9 µM, the RLM [1] is reported as 177 µL/min/mg and the IC50 ([2]; Table 2) is reported as 4 nM. It also gave an IC50 (CYP3A4 (CYP3A)) of 200 nM, an HLM [3] of 155 µL/min/mg and an IC50 ([4]; HEK293, Table 2, HEK cells) of 123 nM.
For `CO[C@H](C)C(=O)N[C@@H](Cc1ccc(F)cc1)[C@H](O)CN[C@H]1CC2(CCC2)Oc2c1cc(CC(C)C)cc2-n1ccnc1` [compound 482], the IC50 (CYP2D6; [5]) was 3.6 µM, the RLM [1] was 194 µL/min/mg and the IC50 ([2]; Table 2) was 150 nM. The IC50 (CYP3A4 (CYP3A)) was 100 nM, the HLM [3] was 27 µL/min/mg and the IC50 ([4]; HEK293, Table 2, HEK cells) was 422 nM.
For `COCC(=O)N[C@@H](Cc1ccc2c(c1)OCO2)[C@H](O)CN[C@H]1CC2(CCC2)Oc2nc(F)c(CC(C)(C)C)cc21` [compound 485], the IC50 (CYP2D6; [5]) was 1.7 µM, the RLM [1] was 106 µL/min/mg and the IC50 ([2]; Table 2) was 120 nM. It also gave an IC50 (CYP3A4 (CYP3A)) of 100 nM, an HLM [3] of 43 µL/min/mg and an IC50 ([4]; HEK293, Table 2, HEK cells) of 378 nM.
`COCC(=O)N[C@@H](Cc1cc(F)cc(F)c1)[C@H](O)CN[C@H]1CC2(CCC2)Oc2c(-c3cncs3)cc(CC(C)(C)C)cc21` [compound 486] showed an IC50 (CYP2D6; [5]) of 12.8 µM, an RLM [1] of 380 µL/min/mg and an IC50 ([2]; Table 2) of 4 nM. The IC50 (CYP3A4 (CYP3A)) was 200 nM, the HLM [3] was 408 µL/min/mg and the IC50 ([4]; HEK293, Table 2, HEK cells) was 33 nM.
With `COCC(=O)N[C@@H](Cc1cc(F)cc(F)c1)[C@H](O)CN[C@H]1CC2(CCC2)Oc2c(-c3ccccc3F)cc(CC(C)(C)C)cc21` [compound 487] the IC50 (CYP2D6; 2D6 IC50 (uM), CYP enzyme inhibition) was 21.4 µM, the “RLM” value [1] was 387 µL/min/mg and the IC50 ([2]; BACE enzyme assay) was 15 nM. The IC50 (CYP3A4 (CYP3A)) was 1600 nM, the “HLM” value [3] was 394 µL/min/mg and the IC50 ([4]; HEK293, HEK cells) was 118 nM.
